Data on two molecules can be found in US5324715A, “Protein for inhibiting collagen-stimulated platelet aggregation” (Merck & Co., Inc., priority 1993, dated 1994).

Test [1] relates to washed human platelets. Nature of the test: Collagen-stimulated platelet aggregation (aggregometer). The format is cell-based. As to conditions: 0.25 mM arachidonic acid added later; 2 μg/ml collagen; inhibitor of Examples 1 and 2 present. As to the method: Human platelets are washed in modified Tyrode's buffer with no Ca^++ with 0.2 mg/ml fibrinogen. The washed platelets are incubated at 37° C. for 2 minutes with the sample to be tested. Collagen at 1 or 2 μg/ml final concentration is added and platelet aggregation in an aggregometer is monitored. Inhibitory activity is defined as a decrease in the rate and/or extent of platelet aggregation.
The IC50 for this inhibition was 45 nM. Inhibition of collagen stimulation was overcome by later addition of 0.25 mM arachidonic acid.

The target in test [2] is collagen.

Turning to `CCCCC/C=C\C/C=C\C/C=C\C/C=C\CCCC(=O)O` [arachidonic acid], the “Inhibition of collagen stimulation of platelet aggregation (by the Haementeria officinalis inhibitor) overcome by later addition” value in test [1] is listed as “overcome”.

B1: collagen-stimulated platelet aggregation inhibitor isolated from Haementeria officinalis salivary gland extract (leech antiplatelet protein, LAPP) (protein)
chain: QDEDAGGAGDETSEGEDTTGSDETPSTGGGGDGGNEETITAGNGDCWSKRPGWKLPDNLLTKTEFTSVDECRKMCEESAVEPSCYILQINTETNECYRNNEGDVTWSSLQYDQPNVVQWHLHACSK
In test [2], B1 registered an IC50 of inhibition of collagen-stimulated platelet aggregation of 45 nM.
